For experiment [1], the system named is 3T3-L1 precursor adipocytes. Nature of the experiment: Triglyceride accumulation in adipocytes. It is filed as cell-based. To be noted: Mus musculus, 100 nM compound, 4 to 5 days culture, relative to 10 μM rosiglitazone taken as 100%, read-out: Amount of accumulated triglyceride (%). How it is done:
(§1) Test for Uptake of Glucose By Adipocytes and Test for Triglyceride Accumulation in Adipocytes
Further, 3T3-L1 precursor adipocytes were cultured for 4 to 5 days in the presence of a test compound, and then the amount of triglyceride in the cells was measured according to the method of Shibata T et al. (Eur. J. Pharmacol., 364 (2–3), 211–219, 1999). The amount of accumulated triglyceride provided after the treatment with 100 nM of each compound was measured, and represented as a relative value based on the amount of accumulated triglyceride provided after the treatment with 10 μM rosiglitazone, which was taken as 100%.

A further experiment concerns Zucker rats. Nature of the experiment: Liver triglyceride contents in Zucker rats. The experiment is classed as in vivo. To be noted: Rattus norvegicus, 336 h, read-out: Triglyceride reducing rate (%); for inhibition in vivo at 1 mg/kg: 1 mg/kg once a day for 2 weeks. Here is the method:
Measurement of Liver Triglyceride Contents in Zucker Rats
To Zucker rats, a vehicle (0.5% MC), a compound of the present invention or fenofibrate (Sigma) was administered once a day for 2 weeks. The livers were isolated on the next day of the final administration, and amounts of triglyceride in the livers were determined. Triglyceride was extracted by adding 5 ml of a mixture of hexane and isopropanol (2:1, V/V) to 100 mg of liver, homogenizing the liver using Polytron homogenizer, then sufficiently stirring and centrifuging the homogenate at 2000 g for 10 minutes at room temperature. The amount of triglyceride in the solution layer was measured.

The test system of another experiment is db/db mice. Nature of the experiment: Hypoglycemic action and triglyceride-decreasing action in db/db mice. Conditions: Mus musculus, 360 h; for inhibition in vivo at 3 mg/kg: 3 mg/kg oral once a day for 2 weeks; for inhibition in vivo at 1 mg/kg: 1 mg/kg oral once a day for 2 weeks; for inhibition in vivo at 10 mg/kg: 10 mg/kg oral once a day for 2 weeks. The experiment is classed as in vivo. How it is done:
Test for Measuring Hypoglycemic Action and Triglyceride-Decreasing Action in db/db Mice
Each of test compounds was administered once a day for 2 weeks to db/db mice genetically presenting pathological conditions of obesity, hyperglycemia, and hyperlipidemia. Blood was collected from the mice immediately before the start of administration of a test sample or a vehicle on the first day. Plasma glucose levels and triglyceride levels were measured, and the mice were divided into groups so that average glucose levels and triglyceride levels gave no significant value among the groups. All the test samples were suspended in a 0.5% methylcellulose (MC) solution and orally administered. For a vehicle-administered control group, a 0.5% MC solution was orally administered. Blood samples were collected from the mice on the 15th day, and plasma glucose levels and triglyceride levels were measured. A hypoglycemic rate and triglyceride-reducing rate were calculated by using the following equations.

Experiment [2] relates to 3T3-L1 precursor adipocytes. Nature of the experiment: Uptake of glucose by adipocytes ([3H]-2-deoxy-glucose uptake). It is filed as cell-based. To be noted: Mus musculus, 100 nM compound, 4 to 5 days culture, 100 nM insulin stimulation, relative to 10 μM rosiglitazone taken as 100%, read-out: Amount of glucose uptake (%). Here is the method:
as §1
According to the method of Mukherjee et al. (Mol. Endocrinol, 14, 1425–1433, 2000), a glucose uptake experiment was performed by using cultured cells. 3T3-L1 precursor adipocytes were cultured for 4 to 5 days in the presence of a test compound, and then stimulated with 100 nM insulin, and then the amount of [^3H]-2-deoxy-glucose (2DG) uptake by the cells was measured. The amount of glucose uptake provided after the treatment with 100 nM of each compound was measured, and represented as a relative value based on the amount of glucose uptake provided after the treatment with 10 μM rosiglitazone, which was taken as 100%.

The subject of experiment [3] is hamsters fed with high cholesterol diet. Nature of the experiment: Total plasma cholesterol and non-HDL cholesterol reducing action in hamster fed high cholesterol diet. The experiment is classed as in vivo. Conditions: Mesocricetus auratus, 192 h, hamsters on high cholesterol diet, 10 mg/kg oral once a day for one week, plasma on 8th day. Here is the method:
Test for Measuring Total Plasma Cholesterol Reducing Action and Non-HDL Cholesterol (VLDL Cholesterol+LDL Cholesterol) Reducing Action in Hamster
A test compound (10 mg/kg) was administered once a day for one week to hamsters fed with high cholesterol diet (CE-2 (Clea Japan)+1% cholesterol+10% coconut oil) for five days. The plasma cholesterol level and the plasma HDL cholesterol level were measured immediately before the start of the administration of the test sample or vehicle on the 1st day, and the hamsters were divided into groups so that the groups gave no significant value of initial levels of the both measurements. Each of the test samples was dissolved in a 0.5% methylcellulose (MC) solution and orally administered. A 0.5% methylcellulose (MC) solution was orally administered to the hamsters as a vehicle control group. A blood sample was collected on the 8th day, and the plasma cholesterol level and the plasma HDL cholesterol level were measured. The total cholesterol reducing rate was obtained by using the following equation. [formula]
Further, non-HDL cholesterol level (LDL cholesterol level+VLDL cholesterol level) was calculated as (Total cholesterol level−HDL cholesterol level), and the reducing rate thereof was calculated by using the following equation. [formula]

Where [4] appears, read: plasma glucose on 15th day vs vehicle, read-out: Hypoglycemic rate (%).
Setting [5] is: plasma triglyceride on 15th day vs vehicle, read-out: Triglyceride reducing rate (%).
The mark [6] stands for this setting: non-HDL = total cholesterol - HDL cholesterol, read-out: Non-HDL cholesterol reducing rate (%).
Where [7] appears, read: read-out: Total cholesterol reducing rate (%).

SMILES strings stand for the structures. Read-outs that look alike come from different tables or passages of the source.

`CCCCOCCN(CCOc1ccc(CC(OCC)C(=O)O)cc1)C(=O)OCC(C)C` (centres unmarked) [Example 123, 3-(4-{2-[N-(2-butoxyethyl)-N-isobutoxycarbonylamino]ethoxy}phenyl)-2-ethoxypropionic acid]: the Emax at 0.1 µM came to 96% in experiment [1] and 99% in experiment [2]. In addition, the inhibition in vivo at 1 mg/kg in the experiment on Zucker rats turned out to be 35%. Moreover, the inhibition in vivo at 3 mg/kg in the experiment with db/db mice (setting [4]) is 8%; with db/db mice (setting [5]) it was 32%. Also, the inhibition in vivo at 10 mg/kg in experiment [3] (setting [6]) and in experiment [3] (setting [7]) was 25% in each case.

In the case of `C#CCOC(=O)N(CCCCCCC)CCOc1ccc(CC(OCC)C(=O)O)cc1` (centres unmarked) [Example 67, 2-ethoxy-3-(4-{2-[N-heptyl-N-(2-propynyloxycarbonyl)amino]ethoxy}phenyl)propionic acid], the Emax at 0.1 µM in experiment [1] was found to be 92%; in experiment [2] it was 91%. In addition, the inhibition in vivo at 1 mg/kg in the experiment with Zucker rats was 47%; with db/db mice (setting [4]), 17%; with db/db mice (setting [5]) it was 26%. The inhibition in vivo at 10 mg/kg came to 32% in experiment [3] (setting [6]) and 34% in experiment [3] (setting [7]).

Take `CCCCCCCN(CCOc1ccc(CC(OCCC)C(=O)O)cc1)C(=O)OC` (centres unmarked) [Example 120, 3-{4-[2-(N-heptyl-N-methoxycarbonylamino)ethoxy]phenyl}-2-propoxypropionic acid]: the Emax at 0.1 µM in experiment [1] amounted to 88%; in experiment [2], 90%. Besides, the inhibition in vivo at 1 mg/kg was found to be 28% with Zucker rats, 39% with db/db mice (setting [4]) and 48% with db/db mice (setting [5]). The inhibition in vivo at 10 mg/kg in experiment [3] (setting [6]) was 25%; in experiment [3] (setting [7]) it was 28%.

As to `CCCCOCCN(CCOc1ccc(CC(OCC)C(=O)O)cc1)C(=O)OCCC` (centres unmarked) [Example 115, 3-(4-{2-[N-(2-butoxyethyl)-N-propoxycarbonylamino]ethoxy}phenyl)-2-ethoxypropionic acid], the Emax at 0.1 µM was found to be 95% in experiment [1] and 98% in experiment [2]. Besides, the inhibition in vivo at 1 mg/kg with Zucker rats came to 42%. Also, the inhibition in vivo at 3 mg/kg worked out at 11% in the experiment on db/db mice (setting [4]) and 18% in the experiment on db/db mice (setting [5]). Besides, the inhibition in vivo at 10 mg/kg in experiment [3] (setting [6]) and in experiment [3] (setting [7]) was 17% in each case.

With `CCCCCCCN(CCOc1ccc(CC(OCC)C(=O)O)cc1)C(=O)OCC(C)C` (centres unmarked) [Example 71, 2-ethoxy-3-{4-[2-(N-heptyl-N-isobutyloxycarbonylamino)ethoxy]phenyl}propionic acid], the values for the Emax at 0.1 µM in experiment [1] and in experiment [2] were 85% and 83%, respectively. Moreover, the inhibition in vivo at 1 mg/kg in the experiment with Zucker rats is 28%; with db/db mice (setting [4]) it was 28%; in the experiment on db/db mice (setting [5]), 40%. The inhibition in vivo at 10 mg/kg was determined as 10% in experiment [3] (setting [6]) and 12% in experiment [3] (setting [7]).

Regarding `CCCCOCCN(CCOc1ccc(CC(OC(C)C)C(=O)O)cc1)C(=O)OC(C)C` (centres unmarked) [Example 130, 3-(4-{2-[N-(2-butoxyethyl)-N-isopropoxycarbonylamino]ethoxy}phenyl)-2-isopropoxypropionic acid], the Emax at 0.1 µM in experiment [1] is 90%; in experiment [2], 92%. Besides, the inhibition in vivo at 1 mg/kg in the experiment on Zucker rats came out at 32%; in the experiment with db/db mice (setting [4]), 41%; with db/db mice (setting [5]), 40%. In addition, the inhibition in vivo at 10 mg/kg in experiment [3] (setting [6]) and in experiment [3] (setting [7]) was 22% in each case.

`CCCCCCCN(CCOc1ccc(CC(OCC)C(=O)O)cc1)C(=O)OCCC` (centres unmarked) [Example 59, 2-ethoxy-3-{4-[2-(N-heptyl-N-propoxycarbonylamino)ethoxy]phenyl}propionic acid]: the Emax at 0.1 µM in experiment [1] amounted to 77%; in experiment [2], 88%. Moreover, the inhibition in vivo at 1 mg/kg with Zucker rats stood at 40%. Moreover, the inhibition in vivo at 3 mg/kg with db/db mice (setting [4]) worked out at 18%; with db/db mice (setting [5]) it was 21%. Moreover, the inhibition in vivo at 10 mg/kg was determined as 35% in experiment [3] (setting [6]) and 37% in experiment [3] (setting [7]).

For `CCCCCCCN(CCOc1ccc(CC(OCC)C(=O)O)cc1)C(=O)Nc1ccc(F)cc1F` (centres unmarked) [Example 2, 3-(4-{2-[3-(2,4-difluorophenyl)-1-heptylureido]ethoxy}phenyl)-2-ethoxypropionic acid], the Emax at 0.1 µM in experiment [1] worked out at 90%; in experiment [2] it was 95%. The inhibition in vivo at 10 mg/kg with Zucker rats (10 mg/kg once a day for 2 weeks) is 19%; in the experiment on db/db mice (setting [4]), 34%; with db/db mice (setting [5]) it was 53%; in experiment [3] (setting [6]) it was 29%; in experiment [3] (setting [7]), 30%.

Source of the values: patent publication US7015345B2, “Propionic acid derivatives” (Asahi Kasei Pharma Corporation, priority 2002, dated 2006).
